Reference: article PMC12919657 (Results in chemistry, 2025)

Test: pKa determination
Assay type: physicochemical
Conditions: methanol / 1 N HCl solution

pKa: 8.22 ± 0.09
SMILES: O=C(CCCN1CCC(O)(c2ccc(Cl)cc2)CC1)c1ccc(F)cc1 [Haloperidol]
